One block for each molecule: values may come before it. Where a SMILES comes first, the peptide text is derived from it.
Experiments:
[1] = Phage display selection and ELISA-type peptide binding to teflon
Text: (§1) For example, a variety of different phage display libraries were screened for peptides that bind to a selected target substrate (e.g., a substrate selected to find a binding domain useful in the present invention). The substrate was either bound to or placed in (depending on the selected substrate) the wells of a 96 well microtiter plate. Nonspecific binding sites on the well surface of the polystyrene microtiter plate were blocked with a buffer containing 1% bovine serum albumin after overnight incubation at 4° C. The wells were then washed 5 times with a buffer containing phosphate buffered saline with Tween™ 20 (“PBS-T”). […] To detect phage that specifically bind to the selected substrate, enzyme-linked immunosorbent (ELISA-type) assays were performed using an anti-phage antibody conjugated to a detector molecule, followed by the detection and quantitation of the amount of detector molecule bound in the assay.
(§2) Relative binding strengths of the peptides were determined by testing serial dilutions of the peptide for binding to the selected substrate (as compared to a substrate used as a negative control; i.e. a substrate other than the selected substrate). Plotting the absorbance observed across the concentration range for each peptide sequence yielded a binding curve and rough dissociation constant (“KD”) of the peptides to its target substrate. […]

[2] = Phage display selection and ELISA-type peptide binding to polystyrene
Text: For example, a variety of different phage display libraries were screened for peptides that bind to a selected target substrate (e.g., a substrate selected to find a binding domain useful in the present invention). The substrate was either bound to or placed in (depending on the selected substrate) the wells of a 96 well microtiter plate. Nonspecific binding sites on the well surface of the polystyrene microtiter plate were blocked with a buffer containing 1% bovine serum albumin after overnight incubation at 4° C. The wells were then washed 5 times with a buffer containing phosphate buffered saline with Tween™ 20 (“PBS-T”). Each library was diluted in PBS-T and added at a concentration of 10^10 pfu/ml in a total volume of 100 μl. After 3 hour of incubation at room temperature with shaking at 50 rpm, unbound phage were removed by multiple washes with PBS-T. Bound phage were recovered by denaturation with 0.1 M glycine buffer, pH2.2. The eluted phage were neutralized with phosphate buffer, and then added to E. coli cells in growth media. The cell and phage-containing media was cultured by incubation overnight at 37° C. in a shaker at 200 rpm. Phage-containing supernatant was harvested from the culture after centrifuging the culture. […] To detect phage that specifically bind to the selected substrate, enzyme-linked immunosorbent (ELISA-type) assays were performed using an anti-phage antibody conjugated to a detector molecule, followed by the detection and quantitation of the amount of detector molecule bound in the assay.
as §2

[3] = test system: cells of endothelial cell lineage
Method: In this illustrative example, cells of endothelial cell lineage used as target cells for the selection and screening process were human adipose-derived stem cells (“ADAS cells”). […] Fibroblasts (16 Lu fibroblast cell line) were used as non-target cells in the selection and screening process.
These peptides were tested in a variety of assay formats for binding specificity against a panel of cells and cell lines to compare binding to cells of endothelial cell lineage (e.g., human umbilical vein endothelial cells, human coronary artery endothelial cells, porcine coronary artery endothelial cells, and human endothelial progenitor cells) versus binding to cells of an origin other than endothelial cell lineage (e.g., human artery smooth muscle cells, porcine artery smooth muscle cells, platelets, and other mammalian cell lines).

[4] = Phage display selection and ELISA-type peptide binding to polyurethane
Text: as §1, §2

[5] = Peptide binding to titanium beads (phage selection, ELISA-type dilution series)
Method: As a specific illustrative example, titanium (in percent: Ti6Al4V) beads of approximately 5/32 of an inch diameter were washed with 70% ethanol, 40% nitric acid, distilled water, 70% ethanol, and acetone to remove any surface contaminants. One titanium bead was placed per well of 96-well polypropylene plate. Nonspecific binding sites on the titanium and the surface of the polypropylene were blocked with 1% bovine serum albumin (BSA) in PBS. The plate was incubated for 1 hour at room temperature with shaking at 50 rpm. The wells were then washed 5 times with 300 μl of PBS. Each library was diluted in PBS+1% BSA and was added at a concentration of 10^10 pfu/ml in a total volume of 250 μl. […]
as §2
As a specific example, titanium beads were blocked with 1% BSA in PBS for 30 minutes at room temperature. […] Beads were washed two times with PBS-T. PNPP (p-nitrophenyl phosphate) was used to develop the assay, and the absorbance was recorded at 405 nm. […]

binding specificity for teflon [1]: specifically bind to teflon
Molecule: CWSRFRLFMLFCMFYLVS [SEQ ID NO:55]

Molecule: FSYSVSYAHPEGL [SEQ ID NO:21]
binding specificity for polystyrene [2]: substantially retain binding specificity for polystyrene

binding specificity for teflon [1]: specifically bind to teflon
Molecule: CIKYPFLYCCLLSLFLFS [SEQ ID NO:56]

EC50 [3]: < 10 µM
Molecule: CC(C)C[C@H](NC(=O)[C@H](C)NC(=O)[C@H](C)NC(=O)[C@H](CO)NC(=O)[C@@H]1CCCN1C(=O)[C@H](CCCNC(=N)N)NC(=O)[C@H](CC(C)C)NC(=O)[C@H](CC(C)C)NC(=O)[C@H](CO)NC(=O)[C@@H](NC(=O)[C@H](Cc1c[nH]cn1)NC(=O)[C@H](CCC(N)=O)NC(=O)[C@H](CS)NC(=O)[C@H](CO)NC(=O)[C@H](CO)NC(=O)[C@@H](N)CO)C(C)C)C(=O)NCC(=O)N1CCC[C@H]1C(=O)N[C@@H](CC(=O)O)C(=O)N[C@@H](CC(N)=O)C(=O)N[C@@H](CS)C(=O)N[C@@H](CS)C(=O)N[C@@H](CO)C(=O)N[C@@H](CCCNC(=N)N)C(=O)NCC(=O)N[C@@H](CO)C(=O)N[C@@H](CO)C(=O)NCC(=O)N[C@@H](CCCCN)C(=O)O [SEQ ID NO:95] (H-SSSCQHVSLLRPSAALGPDNCCSRGSSGK-OH; N-terminus and C-terminus assumed)

EC50 [3]: < 10 µM
Molecule: CC(C)C[C@H](NC(=O)[C@H](C)NC(=O)[C@H](C)NC(=O)[C@H](CO)NC(=O)[C@@H]1CCCN1C(=O)[C@H](CCCNC(=N)N)NC(=O)[C@H](CC(C)C)NC(=O)[C@H](CC(C)C)NC(=O)[C@H](CO)NC(=O)[C@@H](NC(=O)[C@H](Cc1c[nH]cn1)NC(=O)[C@H](CCC(N)=O)NC(=O)[C@H](CS)NC(=O)[C@H](CO)NC(=O)[C@H](CO)NC(=O)[C@@H](N)CO)C(C)C)C(=O)NCC(=O)N1CCC[C@H]1C(=O)N[C@@H](CC(=O)O)C(=O)N[C@@H](CC(N)=O)C(=O)N[C@@H](CS)C(=O)N[C@@H](CO)C(=O)N[C@@H](CCCNC(=N)N)C(=O)NCC(=O)N[C@@H](CO)C(=O)N[C@@H](CO)C(=O)NCC(=O)N[C@@H](CCCCN)C(=O)O [SEQ ID NO:96] (H-SSSCQHVSLLRPSAALGPDNCSRGSSGK-OH; N-terminus and C-terminus assumed)

binding specificity for polyurethane [4]: specifically binds to polyurethane
Molecule: SCYVNGHNSVWWVFWGVS (SCYVNGHNSVWVVVFWGVS) [SEQ ID NO:23]

Molecule: FFGFDVYDMSNAL [SEQ ID NO:19]
binding specificity for polystyrene [2]: substantially retain binding specificity for polystyrene

reduction in binding ([5]; as compared to SEQ ID NO:73 (two cysteines substituted by serine)): 10 fold
Molecule: SDKSHKHWYSYESKYGGS [SEQ ID NO:74]
binding specificity for titanium [5]: substantially retained binding specificity

Molecule: FFPSSWYSHLGVL [SEQ ID NO:18]
binding specificity for polystyrene [2]: substantially retain binding specificity for polystyrene

Reference: patent US7807624B2, “Methods and compositions for promoting attachment of cells of endothelial cell lineage to medical devices” (Affinergy, Inc., priority 2006, dated 2010)
